Among the test systems are DLD-1 colon; DMS 114 small cell lung; MOLT-4 leukemia; OVCAR-4 ovarian; OVCAR-5 ovarian; SF-295 CNS; SK-MEL-5 melanoma; SNB-75 CNS; SW-620 colon; UO-31 renal; HOP-92 NSCLC.
Holding throughout (experiment): growth of human tumour cells (NCI), 48 h

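The compound was tested at five concentrations on cells cultured in 96-well plates, with a 48-hour exposure period. TGI: concentration producing complete growth inhibition.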

`Cc1cccc(C)c1NC(=O)CCC/C(CC(=O)c1ccc(F)cc1)=N\NC(=O)C(=O)NN`: the TGI in the experiment with DLD-1 colon, with DMS 114 small cell lung, in the experiment with MOLT-4 leukemia, in the experiment with OVCAR-4 ovarian, in the experiment on OVCAR-5 ovarian and in the experiment with SF-295 CNS was over 100 µM throughout. In addition, the TGI in the experiment on SK-MEL-5 melanoma, with SNB-75 CNS, in the experiment on SW-620 colon and with UO-31 renal was over 100 µM throughout.
`O=C(Cc1nc2sc3c(c2c(=O)[nH]1)CCCC3)Nc1ccccc1`: the TGI with DMS 114 small cell lung, in the experiment with HOP-92 NSCLC, with MOLT-4 leukemia, with OVCAR-4 ovarian, in the experiment on OVCAR-5 ovarian and with SF-295 CNS was over 100 µM throughout. For the same molecule, the TGI in the experiment on SK-MEL-5 melanoma was over 100 µM; in the experiment on SNB-75 CNS, 53.6 µM; in the experiment on SW-620 colon it was over 100 µM.
`CCCCC(C)/C=C/C(=O)C1=C(O)/C(=C/C(=O)O)OC1=O` (configuration not stated): the TGI in the experiment with DMS 114 small cell lung, in the experiment on MOLT-4 leukemia, with OVCAR-4 ovarian, in the experiment on OVCAR-5 ovarian, with SF-295 CNS and with SK-MEL-5 melanoma was over 100 µM throughout. For the same molecule, the TGI in the experiment on SNB-75 CNS, with SW-620 colon and in the experiment with UO-31 renal was over 100 µM in each case.
In the case of `CCC/C=C\C=C\C1(NS(=O)(=O)c2ccc(C)cc2)CCC(C(C)(C)C)CC1` (configuration not stated), the TGI with DLD-1 colon is 45.3 µM; in the experiment with HOP-92 NSCLC it was 50.9 µM; in the experiment on MOLT-4 leukemia it was 24 µM; with OVCAR-4 ovarian, 49.4 µM; with OVCAR-5 ovarian it was 43.8 µM; with SF-295 CNS, 51.2 µM. The TGI in the experiment on SK-MEL-5 melanoma was 33.3 µM; with SNB-75 CNS, 72.1 µM; in the experiment with SW-620 colon, 35.7 µM; with UO-31 renal it was 59 µM.
`O=C1CC(c2c(-c3ccccc3)[nH]c3ccccc23)C(=O)N1c1ccccc1` (configuration not stated): the TGI with DLD-1 colon, in the experiment with DMS 114 small cell lung, in the experiment on MOLT-4 leukemia, in the experiment on OVCAR-4 ovarian, in the experiment on OVCAR-5 ovarian and in the experiment with SF-295 CNS was over 100 µM in each case. In addition, the TGI in the experiment with SK-MEL-5 melanoma, in the experiment on SNB-75 CNS, in the experiment on SW-620 colon and in the experiment with UO-31 renal was over 100 µM throughout.
Take `O=c1c2ccccc2[nH]c2c(O)ccc(O)c12`: the TGI in the experiment with DMS 114 small cell lung was 42.5 µM; with HOP-92 NSCLC it was 34.5 µM; with MOLT-4 leukemia it was 22.8 µM; in the experiment on OVCAR-4 ovarian, 18.5 µM; in the experiment with OVCAR-5 ovarian, over 100 µM; in the experiment with SF-295 CNS, 38.5 µM. Also, the TGI with SW-620 colon is 36.1 µM; in the experiment on UO-31 renal it was over 79.9 µM.
Regarding `COC(=O)c1cccc2c3ccccc3c3ccccc3c12`, the TGI in the experiment with DLD-1 colon was over 100 µM; in the experiment with DMS 114 small cell lung, 94.7 µM; with MOLT-4 leukemia, 61.7 µM; with OVCAR-4 ovarian, over 100 µM; with OVCAR-5 ovarian, over 100 µM; with SF-295 CNS it was 65.9 µM. Moreover, the TGI in the experiment on SK-MEL-5 melanoma, in the experiment on SNB-75 CNS, with SW-620 colon and in the experiment on UO-31 renal was over 100 µM throughout.
Turning to `C/C(=N\NC(=O)C[N+](C)(C)C)c1sc(-c2cccnc2)nc1C`, the TGI in the experiment with DLD-1 colon, in the experiment on DMS 114 small cell lung, with HOP-92 NSCLC, in the experiment with MOLT-4 leukemia, with OVCAR-5 ovarian and with SF-295 CNS was over 100 µM each time. Besides, the TGI in the experiment with SK-MEL-5 melanoma, in the experiment on SNB-75 CNS, with SW-620 colon and in the experiment with UO-31 renal was over 100 µM in each case.
For `S=c1o[nH]c(-c2ccccc2)c1C=Nc1ccccc1`, the TGI in the experiment with DLD-1 colon, in the experiment with DMS 114 small cell lung, with MOLT-4 leukemia, with OVCAR-4 ovarian, with OVCAR-5 ovarian and in the experiment on SF-295 CNS was over 100 µM each time. For the same molecule, the TGI with SK-MEL-5 melanoma, in the experiment on SNB-75 CNS, with SW-620 colon and in the experiment on UO-31 renal was over 100 µM in each case.
For `CCc1cccc(C(C)C)c1NC(=O)CCl`, the TGI in the experiment on DLD-1 colon, in the experiment with HOP-92 NSCLC, with MOLT-4 leukemia, in the experiment on SF-295 CNS, in the experiment on SNB-75 CNS and in the experiment on SW-620 colon was over 100 µM in each case. In the experiment with UO-31 renal, this molecule returned a TGI of over 100 µM.
In the case of `O=C1/C(=C/c2ccc3c(c2)OCCO3)CCC/C1=C\c1ccc2c(c1)OCCO2`, the TGI is 48.4 µM in the experiment on DLD-1 colon; over 100 µM in the experiment with HOP-92 NSCLC; over 100 µM in the experiment on MOLT-4 leukemia; 61 µM in the experiment with OVCAR-4 ovarian; over 100 µM in the experiment with OVCAR-5 ovarian; 57.3 µM with SF-295 CNS. Moreover, the TGI with SK-MEL-5 melanoma was 80 µM; in the experiment on SNB-75 CNS it was 66.9 µM; in the experiment with SW-620 colon, over 100 µM; in the experiment with UO-31 renal, over 100 µM.
Consider `CC1(C)CCCC2(C)C3C(O)CC2(C)C(O)C31` (configuration not stated), for which the TGI in the experiment with DLD-1 colon, with DMS 114 small cell lung, in the experiment on MOLT-4 leukemia, with OVCAR-4 ovarian, in the experiment with OVCAR-5 ovarian and with SF-295 CNS was over 100 µM each time. The TGI in the experiment with SK-MEL-5 melanoma, in the experiment on SNB-75 CNS, in the experiment with SW-620 colon and in the experiment on UO-31 renal was over 100 µM throughout.
As to `CCOC(=O)C(=O)Nc1cc(Cl)c(Cl)cc1Cl`, the TGI in the experiment with DMS 114 small cell lung, in the experiment on HOP-92 NSCLC, in the experiment with MOLT-4 leukemia, with OVCAR-4 ovarian, in the experiment on OVCAR-5 ovarian and in the experiment with SF-295 CNS was over 100 µM each time. The TGI with SK-MEL-5 melanoma, with SNB-75 CNS, in the experiment on SW-620 colon and with UO-31 renal was over 100 µM in each case.
Consider `CC1=CC(C)(c2c[nH]c3ccccc23)CC(C)(C)c2c1[nH]c1ccccc21` (configuration not stated), for which the TGI in the experiment on DLD-1 colon is 27.2 µM; in the experiment with DMS 114 small cell lung, 36.5 µM; with MOLT-4 leukemia, 27.6 µM; in the experiment on OVCAR-4 ovarian, 27.7 µM; in the experiment on OVCAR-5 ovarian, 36.4 µM; in the experiment on SF-295 CNS, 32.6 µM. For the same molecule, the TGI in the experiment on SNB-75 CNS stood at 67.4 µM; in the experiment on SW-620 colon, 32.1 µM; in the experiment with UO-31 renal, 27.3 µM.

The record behind these values is PubChem BioAssay (NCI).
